The source of these data is patent US20060247223A1, “Non-imidazole alkylamines as histamine H3- receptor ligands and their therapeutic applications” (priority 1998, published 2006).

Like-named read-outs stand apart in the source and are kept apart here.

The target in assay [1] is T1, H3 receptor (Mus musculus, UniProt P58406).
T1 construct: estimated in vivo by the measurement of the tele-methylhistamine level variations in the brain of mice; from tissue; host or cells: mouse brain, in vivo after p.o. administration
In words: tele-methylhistamine level variations in the brain of mice after p.o. administration. It counts as in vivo. Particulars: for ED50: mouse, po, brain tele-methylhistamine level, dose responsible for an half maximal effect; for ED50 (mg/kg/p.o.): tele-methylhistamine level in brain, dose for half maximal effect. The source says: At various time after p.o. administration of the. compounds, the effect of agonists and antagonists are evidenced by the decrease and increase respectively in telemethylhistamine level induced.
The changes are compared to those induced by reference compounds given in high dosage and this allows the calculation of the ED50 value for each compound which correspond to the dose responsible for an half maximal effect.

In assay [2] the target is T2, H3 receptor (Rattus norvegicus, UniProt Q9QYN8).
T2 construct: release of neosynthesized tritiated histamine from rat cerebral cortex synaptosomes; from tissue; host or cells: rat cerebral cortex synaptosomes
Nature of the assay: release of neosynthesized tritiated histamine from rat cerebral cortex synaptosomes. The format is biochemical.

Assay [3] addresses T3, H3 receptor (Cavia porcellus, UniProt Q9JI35).
T3 construct: longitudinal muscle strips from guinea-pig small intestine were dissected out; from tissue; host or cells: guinea-pig small intestine longitudinal muscle strips
In words: guinea-pig ileum longitudinal muscle strips, electrically stimulated contraction, (R)α-methylhistamine curves with antagonist. It counts as biochemical. Particulars: against (R)α-methylhistamine, 1 μM mepyramine present, read-out: H3-receptor antagonist activity pA2 (guinea-pig ileum) (converted). How it is done:
Briefly, longitudinal muscle strips from guinea-pig small intestine were dissected out and incubated in a gassed O2/CO2 (95%/5%) modified Krebs-Ringer's bicarbonate medium at +37° C. in presence of 1 μM mepyramine to block the H1 receptor. After equilibration, contractile activity under stimulation (rectangular pulses of 15 V, 0.5 msec, 0.1 Hz) was recorded. Concentration-response curves of the effect of (R)α-Methylhistamine alone or together with the antagonist were established.

Where [4] appears, read: H3 receptor, rat cerebral cortex synaptosomes, reversal of (R)α-methylhistamine inhibition of tritiated histamine release, read-out: Ki.

T3 sequence (Q9JI35 whole entry): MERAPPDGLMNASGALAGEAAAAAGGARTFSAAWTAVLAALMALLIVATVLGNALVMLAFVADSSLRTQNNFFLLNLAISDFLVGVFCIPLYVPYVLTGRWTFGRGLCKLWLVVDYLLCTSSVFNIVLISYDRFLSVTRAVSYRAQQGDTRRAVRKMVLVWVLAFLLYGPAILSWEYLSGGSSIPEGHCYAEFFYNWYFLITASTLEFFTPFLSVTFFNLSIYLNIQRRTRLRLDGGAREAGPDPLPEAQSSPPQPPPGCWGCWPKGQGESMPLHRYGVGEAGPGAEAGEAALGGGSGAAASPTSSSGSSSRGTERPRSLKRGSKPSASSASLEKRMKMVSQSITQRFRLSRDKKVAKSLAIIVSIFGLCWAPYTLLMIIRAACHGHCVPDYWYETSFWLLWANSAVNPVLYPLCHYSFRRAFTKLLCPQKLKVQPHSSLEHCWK
T1 sequence (P58406 whole entry): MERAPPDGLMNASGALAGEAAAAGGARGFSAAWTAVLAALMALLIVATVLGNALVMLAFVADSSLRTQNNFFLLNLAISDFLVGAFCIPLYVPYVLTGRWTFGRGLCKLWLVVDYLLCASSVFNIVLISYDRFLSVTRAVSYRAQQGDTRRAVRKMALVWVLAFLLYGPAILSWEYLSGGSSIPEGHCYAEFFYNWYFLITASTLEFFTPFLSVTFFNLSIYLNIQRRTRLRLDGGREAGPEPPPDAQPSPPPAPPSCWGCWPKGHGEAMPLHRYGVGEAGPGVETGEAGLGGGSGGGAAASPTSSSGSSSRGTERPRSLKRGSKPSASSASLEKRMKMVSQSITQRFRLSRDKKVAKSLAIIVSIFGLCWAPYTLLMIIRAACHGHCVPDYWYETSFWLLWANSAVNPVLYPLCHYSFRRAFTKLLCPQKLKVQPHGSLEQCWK
T2 sequence (Q9QYN8 whole entry): as the sequence (P58406 whole entry) above, with A15T, T286A, G290A, H387R, V389I counted along it

In the case of `C[C@H]1C[C@H](C)CN(CCCOc2ccc(C(=O)C3CC3)cc2)C1` (relative stereo) [Example 101, 1-[3-(4-cyclopropanecarbonylphenoxy)propyl]-trans-3,5 dimethylpiperidine], in assay [1], the 50% effective dose (ED50) was determined as 0.17 mg/kg.
On to `CCN(CC)CCCOc1ccc(/C(C)=N/O)cc1` [Example 64, 4-(3-diethylaminopropoxy)-acetophenone-oxime], for which the Ki in assay [2] (setting [4]) was found to be 2.7 ± 0.9 nM. Further, the “ED50 (mg/kg/p.o.)” value in assay [1] is reported as 0.8 mg/kg/p.o.
Consider `CCN(CC)CCCOc1ccc(C#N)cc1` [Example 43, N-[3-(4-cyanophenoxy)-propyl]-diethylamine], for which the Ki in assay [2] (setting [4]) worked out at 95 ± 28 nM. Further, the “ED50 (mg/kg/p.o.)” value in assay [1] amounted to 0.50 mg/kg/p.o.
In turn, `CCCC(=O)c1ccc(OCCCN2CCCCC2)cc1` [Example 74, 1-[3-(4-buyrylphenoxy)propyl]piperidine] displayed a 50% effective dose (ED50) in assay [1] of 0.21 mg/kg.
Take `CCCCCCC(=O)N1CCC(N2CCCCC2)CC1` [Example 124, N-Heptanoyl-1,4′-bipiperidine]: the Kb in assay [3] was 398 nM.
In turn, `N#Cc1ccc(OCCCN2CCCCC2)cc1` [Example 59, 1-[3-(4-cyanophenoxy)propyl]piperidine] gave an inhibitory constant (Ki) in assay [2] of 11 ± 2 nM. Besides, in assay [1], the median effective dose (ED50) turned out to be 0.02 mg/kg and the “ED50 (mg/kg/p.o.)” value worked out at 0.20 mg/kg/p.o.
For the compound `CC(=O)c1ccc(OCCCN2CCCC(C)C2)cc1` (stereo not drawn) [Example 66, 1-[3-(4-acetylphenoxy)-propyl]-3-methyl-piperidine], the Ki in assay [2] (setting [4]) was 3.7 ± 0.5 nM. The “ED50 (mg/kg/p.o.)” value in assay [1] is listed as 0.3 mg/kg/p.o.
With `O=[N+]([O-])c1ccc(OCCCCCN2CCCC2)cc1` [Example 18, 1-[5-(4-nitrophenoxy)-pentyl]-pyrrolidine], the Ki in assay [2] (setting [4]) amounted to 39 ± 11 nM. Besides, in assay [1], the “ED50 (mg/kg/p.o.)” value was found to be 1.1 mg/kg/p.o.
In the case of `O=C(c1ccc(OCCCN2CCCCC2)cc1)C1CC1` [Example 76, 1-[3-(4-cyclopropanecarbonylphenoxy)propyl]piperidine], the 50% effective dose (ED50) in assay [1] is 0.18 mg/kg.
As to `CCC(=O)c1ccc(OCCCN2CCCCC2)cc1` [Example 69, 1-[3-(4-propionylphenoxy)-propyl]-piperidine], in assay [2] (setting [4]), the inhibitory constant (Ki) came out at 4.7 ± 0.8 nM. For the same compound, the “ED50 (mg/kg/p.o.)” value in assay [1] is listed as 0.6 mg/kg/p.o.
The matching figures for `CC(O)c1ccc(OCCCCCN2CCCC2)cc1` (stereo not drawn) [Example 50, 1-{5-[4-(1-hydroxyethyl)-phenoxy]-pentyl}-pyrrolidine]: 28 ± 7 nM and 1.0 mg/kg/p.o.
As to `CCN(CC)CCCCOc1ccc(C#N)cc1` [Example 56, N-[4-(4-cyanophenoxy)-butyl]-diethylamine], the Ki in assay [2] (setting [4]) came out at 62 ± 15 nM. Besides, the “ED50 (mg/kg/p.o.)” value in assay [1] came to 1.1 mg/kg/p.o.
Turning to `CCN(CC)CCCOc1ccc(C(C)=O)cc1` [Example 46, N-[3-(4-acetylphenoxy)-propyl]-diethylamine], in assay [2] (setting [4]), the Ki is 20 ± 7 nM. In assay [1], the “ED50 (mg/kg/p.o.)” value is on record as 0.44 mg/kg/p.o.
Regarding `c1ccc2sc(NCCN3CCCCC3)nc2c1` [Example 131, 2-((2-Piperidinoethyl)amino)benzothiazole], the Kb in assay [3] is 251 nM.
`CC(=O)c1ccc(OCCCN2CCC(C)CC2)cc1` [Example 68, 1-[3-(4-acetylphenoxy)-propyl]-4-methyl-piperidine]: the Ki in assay [2] (setting [4]) stood at 4.6 ± 2 nM. Besides, the “ED50 (mg/kg/p.o.)” value in assay [1] was 0.5 mg/kg/p.o.
Turning to `c1ccc(CCCCCCN2CCCCC2)cc1` [Example 136, N-(6-Phenylhexyl)piperidine], the Kb in assay [3] was 316 nM.
Regarding `CCC(=O)c1ccc(OCCCN2CCCC(C)C2)cc1` (stereo not drawn) [Example 88, 1-[3-(4-propionylphenoxy)propyl]-3-methylpiperidine], the ED50 in assay [1] came to 0.14 mg/kg.
Consider `CCCCCNC(=O)OCCCN1CCCCC1` [Example 120, N-Pentyl-3-piperidinopropyl carbamate], for which the Kb in assay [3] was 501 nM.
Regarding `N#Cc1ccc(OCCCN2CCCCCC2)cc1` [Example 60, N-[3-(4-cyanophenoxy)-propyl]-hexamethyleneimine], in assay [2] (setting [4]), the Ki turned out to be 8.7 ± 2.1 nM. Besides, the “ED50 (mg/kg/p.o.)” value in assay [1] was determined as 0.64 mg/kg/p.o.
Consider `CCN(CC)CCCOc1ccc(C(C)O)cc1` (stereo not drawn) [Example 63, N-3-[4-(1-hydroxyethyl)-phenoxy]-propyl-diethylamine], for which, in assay [2] (setting [4]), the Ki worked out at 60 ± 18 nM. In addition, the “ED50 (mg/kg/p.o.)” value in assay [1] amounted to 0.45 mg/kg/p.o.
